Laboratory results as given in PMC3914206.

How the values were obtained:
panel of 442 kinases [1] = target: T1, panel of 442 kinases (Homo sapiens, UniProt P07949, V804M); format: binding; details: Compound Concentration 10 µM
T1 construct: purchased KINOMEscan
Text: (§1) We assessed the selectivity of members of this scaffold using the KINOMEscan methodology across a near comprehensive panel of 442 kinases [[18,27]].

panel of 442 kinases [2] = target: T2, panel of 442 kinases (Homo sapiens, UniProt Q12866); format: binding; details: Compound Concentration 10 µM
T2 construct: purchased KINOMEscan
T2 sequence (Q12866 21-999): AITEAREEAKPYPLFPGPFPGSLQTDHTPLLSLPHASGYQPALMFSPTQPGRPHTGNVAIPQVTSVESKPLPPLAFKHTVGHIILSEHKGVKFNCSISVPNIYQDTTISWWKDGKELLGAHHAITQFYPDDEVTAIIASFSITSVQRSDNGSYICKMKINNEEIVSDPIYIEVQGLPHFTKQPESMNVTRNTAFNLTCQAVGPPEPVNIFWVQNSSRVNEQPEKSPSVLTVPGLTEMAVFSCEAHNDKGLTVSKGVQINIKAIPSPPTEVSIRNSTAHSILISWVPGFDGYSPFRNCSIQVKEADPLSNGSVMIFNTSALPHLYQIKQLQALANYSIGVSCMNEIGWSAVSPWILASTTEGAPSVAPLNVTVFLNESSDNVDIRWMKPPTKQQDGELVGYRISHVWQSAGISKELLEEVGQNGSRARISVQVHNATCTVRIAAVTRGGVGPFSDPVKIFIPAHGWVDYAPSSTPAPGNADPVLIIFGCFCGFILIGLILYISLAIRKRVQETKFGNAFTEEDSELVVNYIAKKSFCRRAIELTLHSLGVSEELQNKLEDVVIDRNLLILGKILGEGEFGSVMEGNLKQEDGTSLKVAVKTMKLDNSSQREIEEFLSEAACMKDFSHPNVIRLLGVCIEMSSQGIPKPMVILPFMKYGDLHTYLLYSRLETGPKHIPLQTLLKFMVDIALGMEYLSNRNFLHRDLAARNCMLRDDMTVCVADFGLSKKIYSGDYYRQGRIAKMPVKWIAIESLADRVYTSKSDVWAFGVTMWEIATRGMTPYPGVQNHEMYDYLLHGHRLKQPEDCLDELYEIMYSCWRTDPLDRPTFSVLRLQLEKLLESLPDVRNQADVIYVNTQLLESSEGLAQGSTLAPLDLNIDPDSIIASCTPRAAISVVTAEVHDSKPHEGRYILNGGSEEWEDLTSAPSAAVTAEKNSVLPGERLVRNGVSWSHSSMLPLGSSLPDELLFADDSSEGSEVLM
Text: as §1

T1 sequence (P07949 29-1114 V804M): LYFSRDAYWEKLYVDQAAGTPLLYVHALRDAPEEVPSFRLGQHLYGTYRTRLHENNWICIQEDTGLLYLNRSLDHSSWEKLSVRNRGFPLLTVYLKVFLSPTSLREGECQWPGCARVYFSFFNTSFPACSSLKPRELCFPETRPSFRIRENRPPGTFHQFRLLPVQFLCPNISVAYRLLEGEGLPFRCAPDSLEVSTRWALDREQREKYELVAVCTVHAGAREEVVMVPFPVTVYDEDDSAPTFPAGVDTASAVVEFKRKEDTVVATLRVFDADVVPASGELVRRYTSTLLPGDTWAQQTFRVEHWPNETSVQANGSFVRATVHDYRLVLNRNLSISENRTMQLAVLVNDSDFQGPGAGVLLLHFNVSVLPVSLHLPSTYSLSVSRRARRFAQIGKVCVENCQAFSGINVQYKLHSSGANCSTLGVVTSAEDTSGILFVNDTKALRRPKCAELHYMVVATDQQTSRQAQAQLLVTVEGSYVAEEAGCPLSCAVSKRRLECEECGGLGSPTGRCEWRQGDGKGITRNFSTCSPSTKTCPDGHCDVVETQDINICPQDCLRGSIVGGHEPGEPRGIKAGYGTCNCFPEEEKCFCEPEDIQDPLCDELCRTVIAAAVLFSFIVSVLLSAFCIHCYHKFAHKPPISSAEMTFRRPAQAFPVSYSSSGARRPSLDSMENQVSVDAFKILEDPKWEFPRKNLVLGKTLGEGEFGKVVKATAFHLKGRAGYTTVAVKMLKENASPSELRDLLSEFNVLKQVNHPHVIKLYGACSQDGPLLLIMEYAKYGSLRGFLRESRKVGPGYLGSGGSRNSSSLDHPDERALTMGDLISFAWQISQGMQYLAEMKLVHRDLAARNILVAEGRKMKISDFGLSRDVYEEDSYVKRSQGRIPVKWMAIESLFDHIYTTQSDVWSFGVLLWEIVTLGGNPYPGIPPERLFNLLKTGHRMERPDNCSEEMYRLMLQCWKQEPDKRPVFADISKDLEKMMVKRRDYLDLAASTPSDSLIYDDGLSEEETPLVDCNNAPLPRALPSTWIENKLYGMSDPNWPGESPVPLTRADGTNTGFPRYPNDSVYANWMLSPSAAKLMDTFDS

| SMILES | KINOMEscan: RET(V804M) (panel of 442 kinases [1]) | KINOMEscan: MERTK (panel of 442 kinases [2]) |
| --- | --- | --- |
| CCOc1cc(C(=O)N2CCC(N3CCN(C)CC3)CC2)ccc1Nc1ncc2c(n1)N(C1CCCC1)c1ccccc1C(=O)N2C [Compound 26] | 100 | 100 |
| COc1cc(C(=O)N2CCC(N3CCN(C)CC3)CC2)ccc1Nc1ncc2c(n1)N(C1CCCC1)c1ccccc1C(=O)N2C [Compound 25, 11-cyclopentyl-2-((2-methoxy-4-(4-(4-methylpiperazin-1-yl)piperidine-1-carbonyl)phenyl)amino)-5-methyl-5H-benzo[e]pyrimido[5,4-b][1,4]diazepin-6(11H)-one] | 100 | 100 |
| COc1cc(C(=O)N2CCC(N3CCN(C)CC3)CC2)ccc1Nc1ncc2c(n1)N(C)c1ccccc1C(=O)N2C [15 (LRRK2-IN-1)] | 80 | 100 |
